From ChEMBL document CHEMBL1201862, “PubChem BioAssay data set” (2004)
The source made the active and inactive calls.

Key:
Hexokinase HKDC1 = Hexokinase HKDC1 (Homo sapiens, UniProt Q2TB90); assay: inhibition of HKDC1 glucose phosphorylation – biochemical, W721R variant, dose response (AID 504729); format: functional
[1] = target: T1, Serine/threonine-protein phosphatase (Homo sapiens, UniProt Q9BPW0); assay: Counterscreen for inhibitors of PP1: fluorescence-based biochemical high throughput dose response assay to identify inhibitors of Protein Phosphatase 5 (PP5). [Related pubchem assays: 2034 (Summary (PP5 inhibitors)), 1987 (PP5 inhibitors in singlate), 2235 (PP1 inhibitors in singlate)]
T1 sequence (Q9BPW0 whole entry): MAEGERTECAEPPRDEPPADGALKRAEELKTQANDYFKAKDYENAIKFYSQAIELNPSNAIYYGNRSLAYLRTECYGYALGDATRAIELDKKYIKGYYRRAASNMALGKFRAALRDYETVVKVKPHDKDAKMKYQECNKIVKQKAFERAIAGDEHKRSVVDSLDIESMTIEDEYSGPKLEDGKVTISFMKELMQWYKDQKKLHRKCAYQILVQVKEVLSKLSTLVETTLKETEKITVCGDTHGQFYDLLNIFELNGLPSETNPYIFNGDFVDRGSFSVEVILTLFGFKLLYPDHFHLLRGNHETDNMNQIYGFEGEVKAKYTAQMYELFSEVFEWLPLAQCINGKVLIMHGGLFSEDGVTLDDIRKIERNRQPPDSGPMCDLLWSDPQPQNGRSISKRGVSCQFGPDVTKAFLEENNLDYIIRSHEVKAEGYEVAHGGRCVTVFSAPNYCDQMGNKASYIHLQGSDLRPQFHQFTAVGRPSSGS

[2] = target: Serine/threonine-protein phosphatase PP1-alpha catalytic subunit (Homo sapiens, UniProt P62136); assay: inhibition of protein phosphatase 1 activity – biochemical, fluorescence, dose response (AID 2403);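 note: phosphatase turnover of OMFP into fluorescent 3-O-methylfluorescein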
[3] = target: Eukaryotic translation initiation factor 4E (Mus musculus, UniProt P63073); assay: blockers of eIF4G binding by eIF4E – biochemical, TR-FRET, dose response (AID 855); format: functional;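 note: potency for disrupting eIF4E binding to eIF4GI seen as loss of FRET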
[4] = target: Photoreceptor-specific nuclear receptor (Homo sapiens, UniProt Q9Y5X4); assay: ligands suppressing NR2E3 nuclear receptor activity – biochemical, TR-FRET, dose response (AID 463256); format: functional
[5] = target: Peroxisome proliferator-activated receptor gamma/Nuclear receptor corepressor 2 (Homo sapiens, UniProt P37231+Q9Y618); assay: Counterscreen for NR2E3 inverse agonists: TR-FRET-based biochemical high throughput dose response assay to identify inverse agonists of the interaction between peroxisome proliferator-activated receptor gamma (PPARg) and nuclear receptor co-repressor 2 (NCOR2).; format: functional
[6] = target: T2, Calpain-2 catalytic subunit (Sus scrofa, UniProt P43367); assay: m-calpain protease blockers, concentration series – biochemical, fluorogenic peptide substrate, dose response (AID 1420); format: functional
T2 sequence (P43367 whole entry): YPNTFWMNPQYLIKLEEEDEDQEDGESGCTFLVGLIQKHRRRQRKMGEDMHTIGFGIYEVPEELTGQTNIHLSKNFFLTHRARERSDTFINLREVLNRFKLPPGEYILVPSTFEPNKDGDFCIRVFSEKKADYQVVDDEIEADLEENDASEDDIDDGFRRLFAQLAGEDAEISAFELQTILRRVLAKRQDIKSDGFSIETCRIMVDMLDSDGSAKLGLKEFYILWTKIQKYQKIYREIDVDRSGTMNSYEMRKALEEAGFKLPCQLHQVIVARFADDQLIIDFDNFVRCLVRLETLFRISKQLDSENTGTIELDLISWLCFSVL

Bcl-2-like protein 10 = Bcl-2-like protein 10 (Homo sapiens, UniProt Q9HD36); assay: Bcl-B/TR3 peptide binding disruption – biochemical, fluorescence polarization, FITC-TR3 peptide, selectivity assay for Bfl-1 inhibitor project, primary screen (AID 748);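 note: fluorescence polarization from a fluorescein-labelled TR3 peptide binding purified Bcl-B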
Genome polyprotein = Genome polyprotein (Hepatitis C virus, UniProt Q2Q167); assay: disruption of hepatitis C core self-association – biochemical, TR-FRET, dose response (AID 2159); set-up: species or system Hepacivirus hominis;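 note: blocks dimerization of HCV core protein measured by TR-FRET between tagged core106 pairs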
[7] = target: T3, Probable nicotinate-nucleotide adenylyltransferase (Staphylococcus aureus (strain N315), UniProt P65502); format: functional, Staphylococcus aureus subsp. aureus N315;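 for IC50 Mean: confirmatory dose-response retesting of NadD inhibitor hits first found in an ultra-high-throughput screen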
[8] = target: T4, Voltage-gated N-type calcium channel alpha-1B subunit/Amyloid beta A4 precursor protein-binding family A member 1 (Homo sapiens, UniProt Q00975+Q02410); format: protein assay
[9] = target: T3, Probable nicotinate-nucleotide adenylyltransferase; format: functional, Staphylococcus aureus subsp. aureus N315; details: read-out: IC50_Mean
[10] = target: T4, Voltage-gated N-type calcium channel alpha-1B subunit/Amyloid beta A4 precursor protein-binding family A member 1; assay: disruptors of Mint-PDZ/N-type channel peptide interaction – biochemical, HTRF, set 2, SAR follow-up (AID 434980); format: functional
[11] = target: Induced myeloid leukemia cell differentiation protein Mcl-1 (Homo sapiens, UniProt Q07820); format: functional
[12] = target: T4, Voltage-gated N-type calcium channel alpha-1B subunit/Amyloid beta A4 precursor protein-binding family A member 1; assay: disruptors of Mint-PDZ/N-type channel peptide interaction – biochemical, HTRF, SAR follow-up (AID 2489); format: functional
[13] = target: T4, Voltage-gated N-type calcium channel alpha-1B subunit/Amyloid beta A4 precursor protein-binding family A member 1; format: protein assay; remark: listed apart in the source
SUMO E1/E2 = SUMO E1/E2 (Homo sapiens, UniProt P63279+Q9UBE0+Q9UBT2); assay: SAR analysis of SUMOylation using HTRF in an in-Vitro dose response assay. [Related pubchem assays (depositor defined):AID2006, AID2011, AID2018, AID2069, AID2658]; format: functional
[14] = target: Dual specificity protein phosphatase 3 (Homo sapiens, UniProt P51452); assay: inhibition constants for human DUSP3 – biochemical, colorimetric, SAR follow-up (AID 2004)
Caspase-3 = target: T5, Caspase-3 (Homo sapiens, UniProt P42574); assay: activators of human procaspase-3 D3A mutant – biochemical, absorbance, PC-3 D3A mutant, counter-screen for dual procaspase-3/7 activator project, dose response (AID 504328)
T5 sequence (P42574 whole entry): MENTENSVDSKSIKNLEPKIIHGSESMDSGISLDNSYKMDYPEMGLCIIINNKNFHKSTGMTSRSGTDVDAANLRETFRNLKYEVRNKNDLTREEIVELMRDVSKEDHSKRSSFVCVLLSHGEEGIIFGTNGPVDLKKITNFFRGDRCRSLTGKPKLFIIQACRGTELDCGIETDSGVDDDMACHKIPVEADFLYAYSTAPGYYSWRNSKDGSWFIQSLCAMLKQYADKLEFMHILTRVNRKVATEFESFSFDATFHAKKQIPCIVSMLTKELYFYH

Caspase-7 = Caspase-7 (Homo sapiens, UniProt P55210); assay: potency of procaspase-7 enzyme activation – biochemical, absorbance, human, dual procaspase-3/-7 activator project, dose response (AID 504330)

T4 sequence (Q00975 whole entry): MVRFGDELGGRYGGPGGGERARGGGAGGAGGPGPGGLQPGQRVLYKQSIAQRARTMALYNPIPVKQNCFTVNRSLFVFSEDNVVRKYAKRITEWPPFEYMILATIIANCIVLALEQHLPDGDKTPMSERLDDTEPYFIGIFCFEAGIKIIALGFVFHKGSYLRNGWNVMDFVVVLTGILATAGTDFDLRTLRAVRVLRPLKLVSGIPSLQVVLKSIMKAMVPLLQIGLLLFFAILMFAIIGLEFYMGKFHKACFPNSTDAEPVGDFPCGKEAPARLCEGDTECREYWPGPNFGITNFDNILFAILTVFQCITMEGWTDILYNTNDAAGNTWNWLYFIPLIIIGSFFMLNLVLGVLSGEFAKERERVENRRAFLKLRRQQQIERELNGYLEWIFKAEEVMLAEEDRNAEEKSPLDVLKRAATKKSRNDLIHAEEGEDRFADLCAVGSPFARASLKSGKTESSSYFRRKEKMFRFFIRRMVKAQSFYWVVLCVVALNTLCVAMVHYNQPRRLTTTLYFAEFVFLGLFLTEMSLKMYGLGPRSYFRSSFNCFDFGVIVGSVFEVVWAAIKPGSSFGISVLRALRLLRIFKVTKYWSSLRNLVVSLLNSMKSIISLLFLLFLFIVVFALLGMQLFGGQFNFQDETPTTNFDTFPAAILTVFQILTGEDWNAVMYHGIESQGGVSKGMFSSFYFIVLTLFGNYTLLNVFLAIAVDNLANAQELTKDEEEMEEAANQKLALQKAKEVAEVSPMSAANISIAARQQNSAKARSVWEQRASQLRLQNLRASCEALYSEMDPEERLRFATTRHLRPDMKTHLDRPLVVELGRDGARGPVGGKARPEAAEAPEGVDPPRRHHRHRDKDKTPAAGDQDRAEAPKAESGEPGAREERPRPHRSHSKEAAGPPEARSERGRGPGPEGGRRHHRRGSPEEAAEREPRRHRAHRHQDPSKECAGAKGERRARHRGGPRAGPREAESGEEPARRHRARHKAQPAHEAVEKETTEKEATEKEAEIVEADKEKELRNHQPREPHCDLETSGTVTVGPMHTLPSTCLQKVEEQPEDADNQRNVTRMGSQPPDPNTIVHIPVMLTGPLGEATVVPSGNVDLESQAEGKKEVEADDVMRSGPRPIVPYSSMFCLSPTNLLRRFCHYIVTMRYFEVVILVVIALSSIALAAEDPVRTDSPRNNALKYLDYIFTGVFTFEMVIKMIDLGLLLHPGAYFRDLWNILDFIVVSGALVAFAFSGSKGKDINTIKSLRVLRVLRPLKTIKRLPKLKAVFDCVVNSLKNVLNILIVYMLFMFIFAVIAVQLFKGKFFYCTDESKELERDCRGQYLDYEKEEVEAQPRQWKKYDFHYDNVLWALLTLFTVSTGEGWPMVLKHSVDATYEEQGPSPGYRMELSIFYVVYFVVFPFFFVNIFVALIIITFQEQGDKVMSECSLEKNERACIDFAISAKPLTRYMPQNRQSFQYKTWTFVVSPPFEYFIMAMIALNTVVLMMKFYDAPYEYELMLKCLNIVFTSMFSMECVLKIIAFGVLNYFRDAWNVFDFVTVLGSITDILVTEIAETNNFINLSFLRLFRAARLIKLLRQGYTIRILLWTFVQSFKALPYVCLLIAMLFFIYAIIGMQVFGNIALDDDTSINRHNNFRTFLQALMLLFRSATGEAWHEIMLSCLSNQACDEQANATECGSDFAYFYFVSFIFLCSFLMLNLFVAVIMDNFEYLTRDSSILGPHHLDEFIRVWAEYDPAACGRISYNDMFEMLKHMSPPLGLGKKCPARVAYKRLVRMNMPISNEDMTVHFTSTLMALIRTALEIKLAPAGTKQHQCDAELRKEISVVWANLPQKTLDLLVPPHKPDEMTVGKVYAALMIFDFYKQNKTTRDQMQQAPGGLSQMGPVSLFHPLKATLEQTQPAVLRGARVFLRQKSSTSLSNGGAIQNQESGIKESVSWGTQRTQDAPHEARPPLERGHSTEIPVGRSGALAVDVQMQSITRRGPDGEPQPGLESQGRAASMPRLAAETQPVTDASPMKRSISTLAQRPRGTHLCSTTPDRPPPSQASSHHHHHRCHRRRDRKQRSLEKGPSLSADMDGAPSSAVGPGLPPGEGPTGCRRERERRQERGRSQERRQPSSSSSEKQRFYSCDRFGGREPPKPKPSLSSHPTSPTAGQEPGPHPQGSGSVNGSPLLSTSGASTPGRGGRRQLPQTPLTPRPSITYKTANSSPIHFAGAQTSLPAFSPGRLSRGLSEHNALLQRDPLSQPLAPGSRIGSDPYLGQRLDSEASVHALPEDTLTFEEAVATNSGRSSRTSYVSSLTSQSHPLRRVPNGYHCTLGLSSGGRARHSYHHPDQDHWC
T4 sequence (Q02410 whole entry): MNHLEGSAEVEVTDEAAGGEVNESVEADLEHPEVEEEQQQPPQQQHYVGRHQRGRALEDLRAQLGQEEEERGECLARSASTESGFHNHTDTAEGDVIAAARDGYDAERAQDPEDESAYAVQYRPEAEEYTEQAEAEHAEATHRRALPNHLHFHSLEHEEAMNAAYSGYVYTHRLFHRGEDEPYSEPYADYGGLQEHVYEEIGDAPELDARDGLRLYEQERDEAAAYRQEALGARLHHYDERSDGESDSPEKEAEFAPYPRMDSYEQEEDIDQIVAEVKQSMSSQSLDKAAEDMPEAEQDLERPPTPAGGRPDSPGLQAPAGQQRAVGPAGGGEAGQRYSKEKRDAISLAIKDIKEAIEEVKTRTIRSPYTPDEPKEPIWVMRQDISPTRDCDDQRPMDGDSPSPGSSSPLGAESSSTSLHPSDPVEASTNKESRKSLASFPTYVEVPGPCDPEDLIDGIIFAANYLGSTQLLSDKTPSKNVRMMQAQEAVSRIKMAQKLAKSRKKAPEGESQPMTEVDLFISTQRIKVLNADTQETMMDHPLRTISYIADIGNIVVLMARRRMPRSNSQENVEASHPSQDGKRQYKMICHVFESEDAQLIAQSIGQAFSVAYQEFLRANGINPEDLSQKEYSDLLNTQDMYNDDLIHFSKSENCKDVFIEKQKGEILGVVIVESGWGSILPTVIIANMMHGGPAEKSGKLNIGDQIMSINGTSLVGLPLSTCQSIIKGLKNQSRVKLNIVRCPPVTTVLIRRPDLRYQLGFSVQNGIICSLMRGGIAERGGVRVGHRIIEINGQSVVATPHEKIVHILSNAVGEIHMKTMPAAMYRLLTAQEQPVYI
T3 sequence (P65502 whole entry): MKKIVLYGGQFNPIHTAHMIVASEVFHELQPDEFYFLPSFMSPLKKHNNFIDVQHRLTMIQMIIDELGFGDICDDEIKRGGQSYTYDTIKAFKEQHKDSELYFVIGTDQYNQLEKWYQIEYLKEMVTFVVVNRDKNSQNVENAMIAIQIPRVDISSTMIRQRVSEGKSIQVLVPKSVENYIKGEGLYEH
Dual specificity protein phosphatase 3, sequence (P51452 whole entry): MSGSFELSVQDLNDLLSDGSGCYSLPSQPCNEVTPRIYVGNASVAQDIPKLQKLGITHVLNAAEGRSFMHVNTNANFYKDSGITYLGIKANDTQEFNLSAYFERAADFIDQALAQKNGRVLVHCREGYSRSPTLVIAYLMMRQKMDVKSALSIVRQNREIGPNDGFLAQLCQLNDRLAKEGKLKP
Induced myeloid leukemia cell differentiation protein Mcl-1, sequence (Q07820 whole entry): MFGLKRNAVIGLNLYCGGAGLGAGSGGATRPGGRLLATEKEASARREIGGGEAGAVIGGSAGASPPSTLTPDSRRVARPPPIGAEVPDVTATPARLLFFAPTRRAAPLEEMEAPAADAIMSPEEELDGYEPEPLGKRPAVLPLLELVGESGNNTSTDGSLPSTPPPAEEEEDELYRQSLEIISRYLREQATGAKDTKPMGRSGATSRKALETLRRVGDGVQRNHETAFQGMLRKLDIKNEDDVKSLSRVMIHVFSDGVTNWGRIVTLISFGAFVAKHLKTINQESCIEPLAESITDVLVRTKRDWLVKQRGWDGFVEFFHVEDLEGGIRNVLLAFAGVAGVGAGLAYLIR
Serine/threonine-protein phosphatase PP1-alpha catalytic subunit, sequence (P62136 whole entry): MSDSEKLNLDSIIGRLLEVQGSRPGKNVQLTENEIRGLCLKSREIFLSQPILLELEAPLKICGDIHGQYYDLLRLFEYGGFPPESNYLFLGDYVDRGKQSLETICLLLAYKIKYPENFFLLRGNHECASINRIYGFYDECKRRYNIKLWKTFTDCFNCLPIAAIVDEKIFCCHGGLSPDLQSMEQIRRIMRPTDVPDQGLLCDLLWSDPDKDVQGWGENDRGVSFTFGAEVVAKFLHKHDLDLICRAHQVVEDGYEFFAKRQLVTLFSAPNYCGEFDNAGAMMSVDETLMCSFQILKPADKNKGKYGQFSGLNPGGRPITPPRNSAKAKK
Genome polyprotein, sequence (Q2Q167 whole entry): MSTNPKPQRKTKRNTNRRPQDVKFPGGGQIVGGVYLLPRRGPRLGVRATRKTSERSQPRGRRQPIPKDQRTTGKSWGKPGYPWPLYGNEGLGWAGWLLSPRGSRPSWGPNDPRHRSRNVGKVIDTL
Photoreceptor-specific nuclear receptor, sequence (Q9Y5X4 whole entry): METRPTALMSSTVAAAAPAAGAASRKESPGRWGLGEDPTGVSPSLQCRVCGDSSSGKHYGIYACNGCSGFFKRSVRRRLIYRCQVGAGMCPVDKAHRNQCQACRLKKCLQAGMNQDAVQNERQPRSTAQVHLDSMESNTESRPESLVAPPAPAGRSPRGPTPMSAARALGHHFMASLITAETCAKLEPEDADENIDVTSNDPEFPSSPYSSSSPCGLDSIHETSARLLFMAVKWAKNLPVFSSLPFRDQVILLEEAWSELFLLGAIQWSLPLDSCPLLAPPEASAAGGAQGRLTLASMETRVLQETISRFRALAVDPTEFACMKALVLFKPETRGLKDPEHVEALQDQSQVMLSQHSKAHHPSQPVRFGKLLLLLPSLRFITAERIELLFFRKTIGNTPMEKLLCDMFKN
Bcl-2-like protein 10, sequence (Q9HD36 whole entry): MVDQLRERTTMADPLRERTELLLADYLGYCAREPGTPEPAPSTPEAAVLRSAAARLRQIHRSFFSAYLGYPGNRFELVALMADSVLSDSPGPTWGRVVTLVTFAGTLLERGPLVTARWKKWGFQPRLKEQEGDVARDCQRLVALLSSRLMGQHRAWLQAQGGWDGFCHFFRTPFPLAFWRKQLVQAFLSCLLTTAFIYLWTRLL

Which IC50 (Hexokinase HKDC1) does the source give for `N#Cc1ccc(CSc2nnc(NC(=O)c3ccc4ncsc4c3)s2)cc1` here?
The IC50 was 10.4 µM (active).

What about the IC50 [1] of the same compound?
The IC50 was > 67 µM (not active).

What about the IC50 [2] of the same compound?
Its IC50 is 7.42 µM (active).

And the IC50 [3]?
Its IC50 is 13.1 µM (active).

What about the IC50 [4] of the same compound?
The IC50 was 3.91 µM (active).

And the IC50 [5]?
Its IC50 is 3.79 µM (active).

For `CCN(CC)CCc1c(C)[nH]c(C(=O)OCc2ccccc2)c1C`, which IC50 [6] is on record?
The IC50 was 14.4 µM (not active).

What about the IC50 (Bcl-2-like protein 10) of the same compound?
The IC50 was 41.8 µM (active).

`COc1ccc(NC(=O)c2cc(-c3ccco3)nc3ccccc23)cc1S(=O)(=O)N1CCOCC1` was tested. Which IC50 (Genome polyprotein) did it give?
Its IC50 is > 49.8 µM (not active).

And the IC50 [7]?
The IC50 was 8.76 µM (active).

What about the IC50 [8] of the same compound?
The IC50 was 3.76 µM (active).

And the IC50 [9]?
Its IC50 is 28.1 µM (active).

What about the IC50 [10] of the same compound?
Its IC50 is 17.7 µM (active).

What about the IC50 [11] of the same compound?
The IC50 was 2.29 µM (active).

And the IC50 [12]?
The IC50 was 15 µM (active).

And the IC50 [13]?
Its IC50 is 2.59 µM (active).

And the IC50 (SUMO E1/E2)?
The IC50 was 19.4 µM (active).

For `O=Cc1ccc(Oc2ncnc3ccccc23)cc1`, which Ki [14] is on record?
The Ki was 43.7 µM (inactive).

What does the source list for `COc1ccc(-c2cc(C(=O)OC3CCOC3=O)c3ccccc3n2)cc1` (stereo not given)?
EC50 (Caspase-3): > 85.3 µM (inactive); EC50 (Caspase-7): > 85.3 µM (inactive)
